How the values were obtained:
P2X purinoceptor 3 = molecular target: T1, P2X purinoceptor 3 (Rattus norvegicus, UniProt P49654); test: Antagonist activity at rat recombinant P2X3 receptor expressed in CHO cells by FLIPR assay
T1 sequence (P49654 whole entry): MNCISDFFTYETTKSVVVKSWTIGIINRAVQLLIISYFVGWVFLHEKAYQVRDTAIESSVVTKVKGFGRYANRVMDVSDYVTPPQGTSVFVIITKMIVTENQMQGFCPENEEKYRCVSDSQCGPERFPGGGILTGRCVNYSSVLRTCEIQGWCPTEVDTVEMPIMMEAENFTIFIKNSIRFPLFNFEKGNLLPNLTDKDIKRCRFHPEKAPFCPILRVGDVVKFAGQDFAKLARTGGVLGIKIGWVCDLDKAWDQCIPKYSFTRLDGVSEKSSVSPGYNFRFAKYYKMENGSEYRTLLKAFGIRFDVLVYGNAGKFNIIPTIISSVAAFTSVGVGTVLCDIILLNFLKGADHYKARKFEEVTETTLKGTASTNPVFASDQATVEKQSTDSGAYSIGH

[1] = molecular target: T2, P2X2/P2X3 heterotrimeric receptor (Homo sapiens, UniProt P56373+Q9UBL9); test: Antagonist activity at human recombinant P2X2/3 receptor expressed in human 1321N1 cells by FLIPR assay; format: functional, cell-based
T2 sequence (Q9UBL9 whole entry): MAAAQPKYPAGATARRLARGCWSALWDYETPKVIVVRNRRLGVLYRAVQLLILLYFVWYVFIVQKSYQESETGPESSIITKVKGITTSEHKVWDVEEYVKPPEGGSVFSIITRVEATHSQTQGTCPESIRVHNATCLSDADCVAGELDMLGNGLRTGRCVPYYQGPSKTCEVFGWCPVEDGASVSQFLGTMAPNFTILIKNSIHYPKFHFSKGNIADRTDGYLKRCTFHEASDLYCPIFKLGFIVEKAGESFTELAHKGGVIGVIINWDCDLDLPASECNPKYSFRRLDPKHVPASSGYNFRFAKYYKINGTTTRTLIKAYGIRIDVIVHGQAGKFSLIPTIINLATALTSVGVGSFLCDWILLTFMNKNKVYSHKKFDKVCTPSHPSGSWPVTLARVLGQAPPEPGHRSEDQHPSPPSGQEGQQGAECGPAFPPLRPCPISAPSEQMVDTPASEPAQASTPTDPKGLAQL
T2 sequence (P56373 whole entry): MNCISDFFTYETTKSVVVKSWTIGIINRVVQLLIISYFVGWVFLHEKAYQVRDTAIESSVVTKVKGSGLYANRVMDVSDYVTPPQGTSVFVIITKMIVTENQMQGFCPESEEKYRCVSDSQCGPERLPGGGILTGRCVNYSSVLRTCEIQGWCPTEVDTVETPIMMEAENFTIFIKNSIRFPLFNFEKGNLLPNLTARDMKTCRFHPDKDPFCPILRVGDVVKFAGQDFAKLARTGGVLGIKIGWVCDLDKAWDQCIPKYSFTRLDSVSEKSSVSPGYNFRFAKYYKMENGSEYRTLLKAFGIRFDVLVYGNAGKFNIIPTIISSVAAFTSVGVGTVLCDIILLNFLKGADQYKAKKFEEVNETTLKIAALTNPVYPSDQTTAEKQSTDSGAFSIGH

Row | Compound | IC50 (P2X purinoceptor 3) [µM] | IC50 [1] [µM]
1 | COc1ccc(C(C)C)c(Oc2cnc(N)nc2N)c1 | 0.398 | 0.158
2 | COc1cc(C(C)C)c(Oc2cnc(N)nc2N)cc1C | 0.1 | 0.398
3 | COc1cc(C(C)C)c(Oc2cnc(N)nc2N)cc1Cl | 0.0251 | 0.1
4 | COc1cc(C(C)C)c(Oc2cnc(N)nc2N)cc1C#N | 0.631 | 2.51
5 | COc1cc(Cc2cnc(N)nc2N)c(C2CCC2)cc1OC | > 10 | > 10
6 | COc1cc(C(C)C)c(C(O)c2cnc(N)nc2N)cc1OC (stereo not drawn) | > 10 | > 10
7 | COc1cc(C(=O)c2cnc(N)nc2N)c(C(C)C)cc1OC | > 10 | > 10
8 | COc1cc(C(C)C)c(Oc2cnc(N)nc2N)cc1S(C)(=O)=O | 0.1 | 1
9 | COc1cc(C(C)C)c(Oc2cnc(N)nc2N)cc1-c1ncc[nH]1 | 0.158 | 0.631
10 | COc1cc(C(C)C)c(Oc2cnc(N)nc2N)cc1C1=NCCN1 | > 10 | > 10
11 | COc1cc(Oc2cnc(N)nc2N)c(C(C)C)cc1I | 0.0398 | 0.398
12 | COc1cc(C(C)C)c(Oc2cnc(N)nc2N)cc1C(C)C | 0.501 | 2
13 | COc1cc(Cc2cnc(N)nc2N)c(C2CC2)cc1OC | 1.26 | > 10
14 | COc1cc(Cc2cnc(N)nc2N)c(CC(C)C)cc1OC | > 10 | 10
15 | CCc1cc(OC)c(OC)cc1Cc1cnc(N)nc1N | – | > 10
16 | COc1cc(Cc2cnc(N)nc2N)c(C(C)C)cc1OC | – | 2
17 | CCc1cc(OC)c(OC)cc1Oc1cnc(N)nc1N | 0.158 | 2
18 | COc1cc(Oc2cnc(N)nc2N)c(C(C)C)cc1OC | 0.0251 | –

— ChEMBL document CHEMBL1153301, “Identification and SAR of novel diaminopyrimidines. Part 1: The discovery of RO-4, a dual P2X(3)/P2X(2/3) antagonist for the treatment of pain” (Bioorg Med Chem Lett, 2009)
